Biological target: human PDE1B (Homo sapiens (Human), UniProt Q01064)
Assay: PDE1B inhibitory assay (IMAP TR-FRET)
Settings: PDE1B pIC50, negative log of half-maximal molar inhibitory concentration; 200 nM FAM-cAMP, Calmodulin, CaCl2
Protocol: PDE1B inhibition was determined by an IMAP TR-FRET assay.
After a brief centrifugation, the plates were incubated for 30 minutes at room temperature. The assay was terminated by adding 5 μL IMAP binding reagent/Tb complex (Molecular Devices, Sunnyvale, Calif.) to each well.
Plates were incubated 1 hour at room temperature and read on a Viewlux multimode plate reader (Perkin Elmer). The instrument was set to excite using the DUG11 filter and measure using 490/10 nm and 520/10 nm filters. Ratios of acceptor and donor were then calculated.
For IC50 calculations, the values of % efficacy versus a series of compound concentrations were then plotted using non-linear regression analysis of sigmoidal dose-response curves generated with the equation Y=B+(T−B)/1+10((Log EC50−X)×Hill Slope), where Y=percent activity, B=minimum percent efficacy, T=maximum percent efficacy, X=logarithm of compound and Hill Slope=slope factor or Hill coefficient. The IC50 value was determined by the concentration causing a half-maximal percent efficacy.

Structure (SMILES) | IC50 [nM]
CC(C)CCc1cc2c(s1)n(Cc1ccccc1Cl)c(=O)n1ncnc21 [Example 19] | 1000 to 10000
COc1ccc(Cn2c(=O)n3ncnc3c3c4c(sc32)CN(C(C)C(F)F)CC4)cc1 (stereo not drawn) [Example 151] | 100 to 1000
CC(C)CCc1cc2c(s1)n(Cc1ccc(Cl)cc1)c(=O)n1ncnc21 [Example 23] | 100 to 1000
COCCN(Cc1cnc2c(c1)c1ncnn1c(=O)n2Cc1ccc(OC)cc1)C(C)C [Example 239] | 100 to 1000
COc1ccc(Cn2c(=O)n3ncnc3c3cc(CN4C[C@@H](C)OC[C@H]4C)cnc32)cc1 [Example 248] | 100 to 1000
COc1ccc(Cn2c(=O)n3ncnc3c3c4c(sc32)COCC4)cc1F [Example 95] | 100 to 1000
COc1ccc(Cn2c(=O)n3ncnc3c3c4c(sc32)N(Cc2cccc(Cl)c2)CCC4)cc1OC [Example 155] | 1000 to 10000
COc1ccc(Cn2c(=O)n3ncnc3c3cc(CN4CCOCC4C)cnc32)cc1 (stereo not drawn) [Example 230] | 100 to 1000
Cc1oc2c(c1C)c1ncnn1c(=O)n2Cc1ccc(Cl)cc1 [Example 79, 6-(4-Chlorobenzyl)-8,9-dimethylfuro[3,2-e][1,2,4]triazolo[1,5-c]pyrimidin-5(6H)-one] | 100 to 1000
COc1ccc(Cn2c(=O)n3ncnc3c3cc(CN4C[C@@H](C)N[C@@H](C)C4)cnc32)cc1 [Example 250] | 1000 to 10000
COc1ccc(Cn2c(=O)n3ncnc3c3cc(N4CCC(N(C)C)C4)cnc32)cc1 (stereo not drawn) [Example 198] | 100 to 1000
Cc1cc2c(s1)n(Cc1ccc(Cl)cc1)c(=O)n1ncnc21 [Example 15] | 100 to 1000
COc1ccc(Cn2c(=O)n3ncnc3c3ccc(CNCC4(C)COC4)nc32)cc1 [Example 258] | 1000 to 10000
COCCN1CCN(Cc2cnc3c(c2)c2ncnn2c(=O)n3Cc2ccc(OC)cc2)CC1 [Example 238] | 1000 to 10000
COc1ccc(Cn2c(=O)n3ncnc3c3ccc(C(OC)OC)nc32)cc1 [Example 187] | 1000 to 10000
COc1ccc(Cn2c(=O)n3ncnc3c3cc(Br)cnc32)cc1 [Example 185, 9-Bromo-6-(4-methoxybenzyl)pyrido[3,2-e][1,2,4]triazolo[1,5-c]pyrimidin-5(6H)-one] | 100 to 1000
COc1ccc(Cn2c(=O)n3ncnc3c3cc(CN4CC(F)(F)OC(F)(F)C4)cnc32)cc1 [Example 226] | 100 to 1000

Structure (SMILES) | IC50 [nM]
C=Cc1cnc2c(c1)c1ncnn1c(=O)n2Cc1ccc(OC)cc1 [Example 214, 6-(4-Methoxybenzyl)-9-vinylpyrido[3,2-e][1,2,4]triazolo[1,5-c]pyrimidin-5(6H)-one] | 100 to 1000
COc1ccc(Cn2c(=O)n3ncnc3c3cc(CN4CCCCC4)cnc32)cc1 [Example 206] | 100 to 1000
COc1ccc(Cn2c(=O)n3ncnc3c3cc(N(C)C4CCOCC4)cnc32)cc1 [Example 200] | 100 to 1000
COc1ccc(Cn2c(=O)n3ncnc3c3nc(Br)cnc32)cc1 [Example 188] | 100 to 1000
COc1ccc(Cn2c(=O)n3ncnc3c3cc(C(F)CN4CCOCC4)cnc32)cc1 (stereo not drawn) [Example 269, 9-(1-Fluoro-2-morpholinoethyl)-6-(4-methoxybenzyl)pyrido[3,2-e][1,2,4]triazolo[1,5-c]pyrimidin-5(6H)-one] | 100 to 1000
COc1ccc(Cn2c(=O)n3ncnc3c3cc(C(O)C(F)(F)F)cnc32)cc1 (stereo not drawn) [Example 271, 6-(4-Methoxybenzyl)-9-(2,2,2-trifluoro-1-hydroxyethyl)pyrido[3,2-e][1,2,4]triazolo[1,5-c]pyrimidin-5(6H)-one] | 100 to 1000
CCOc1ccc(Cn2c(=O)n3ncnc3c3c4c(sc32)COCC4)cc1 [Example 97] | 1000 to 10000
C[C@@H]1CN(Cc2cnc3c(c2)c2ncnn2c(=O)n3Cc2ccc(F)c(Br)c2)C[C@H](C)O1 [Example 278] | 100 to 1000
C[C@@H]1CN(Cc2cnc3c(c2)c2ncnn2c(=O)n3Cc2ccc(F)c(Cl)c2)C[C@H](C)O1 [Example 294] | 100 to 1000
COc1ccc(Cn2c(=O)n3ncnc3c3cc(CN4C[C@@H](C)O[C@@H](C)C4)cnc32)cc1F [Example 276] | 100 to 1000
COc1ccc(Cn2c(=O)n3ncnc3c3cc(C(C)=O)cnc32)cc1 [Example 265, 9-Acetyl-6-(4-methoxybenzyl)pyrido[3,2-e][1,2,4]triazolo[1,5-c]pyrimidin-5(6H)-one] | 100 to 1000
O=c1n(Cc2ccccc2Cl)c2sc(Cc3ccccc3)cc2c2ncnn12 [Example 8] | 100 to 1000
C[C@@H]1CN(Cc2cnc3c(c2)c2ncnn2c(=O)n3Cc2ccc(F)cc2)C[C@H](C)O1 [Example 275] | 100 to 1000
COc1ccc(Cn2c(=O)n3ncnc3c3cc(N(C)CCCN(C)C)cnc32)cc1 [Example 202] | 1000 to 10000
COc1ccc(Cn2c(=O)n3ncnc3c3ncc(CN4CCN(C)CC4)cc32)cc1 [Example 240] | 1000 to 10000
COc1ccc(Cn2c(=O)n3ncnc3c3cc(C(O)CN4CCOCC4)cnc32)cc1 (stereo not drawn) [Example 267, 9-(1-Hydroxy-2-morpholinoethyl)-6-(4-methoxybenzyl)pyrido[3,2-e][1,2,4]triazolo[1,5-c]pyrimidin-5(6H)-one] | 100 to 1000

Same assay, conditions: negative log of half-maximal molar inhibitory concentration; 200 nM FAM-cAMP, Calmodulin, CaCl2

Structure (SMILES) | PDE1B pIC50
COc1ccc(Cn2c(=O)n3ncnc3c3c4c(sc32)CN(C(=O)OC(C)(C)C)CC4)cc1 [Example 80, tert-Butyl 6-(4-methoxybenzyl)-5-oxo-5,6,10,11-tetrahydropyrido[4′,3′:4,5]thieno[3,2-e][1,2,4]triazolo[1,5-c]pyrimidine-9(8H)-carboxylate] | >7
COc1ccc(Cn2c(=O)n3ncnc3c3cc(CN4CC5(CCOCC5)C4)sc32)cc1 [Example 38] | >7
C[C@@H]1CN(Cc2cnc3c(c2)c2ncnn2c(=O)n3Cc2ccc(S(C)(=O)=O)cc2)C[C@H](C)O1 [Example 282] | <5
COc1ccc(Cn2c(=O)n3ncnc3c3c4c(sc32)CN(S(C)(=O)=O)CC4)cc1 [Example 162] | >7
COc1ccc(Cn2c(=O)n3ncnc3c3c(C)c(CN(C)C)sc32)cc1 [Example 45] | >7
COc1ccc(Cn2c(=O)n3ncnc3c3c4c(sc32)COCC4)cc1 [Example 90] | >7
CCC1CN(Cc2cnc3c(c2)c2ncnn2c(=O)n3Cc2ccc(OC)cc2)CCO1 (stereo not drawn) [Example 224] | >7
COc1ccc(Cn2c(=O)n3ncnc3c3c(C)c(CN(CCO)Cc4ccccc4)sc32)cc1 [Example 48] | >7
COc1ccc(Cn2c(=O)n3ncnc3c3c4c(sc32)N(C(=O)C2CCOC2)CCC4)cc1 (stereo not drawn) [Example 175] | >7
COc1ccc(Cn2c(=O)n3ncnc3c3c4c(sc32)CN(Cc2nccn2C)CC4)c(F)c1 [Example 138] | >7
COc1ccc(Cn2c(=O)n3ncnc3c3cc(CN4C[C@@H](C)O[C@@H](C)C4)cnc32)cc1 [Example 220] | >7
COc1ccc(Cn2c(=O)n3ncnc3c3c(C)c(CN(C)CC4CCCO4)sc32)cc1 (stereo not drawn) [Example 54] | >7
COc1ccc(Cn2c(=O)n3ncnc3c3c(C)c(CN4CCN(C)C(C)C4)sc32)cc1 (stereo not drawn) [Example 73] | >7
COc1ccc(Cn2c(=O)n3ncnc3c3cc(CN4C[C@H](C)OC[C@@H]4C)cnc32)cc1 [Example 247] | >7
COc1ccc(Cn2c(=O)n3ncnc3c3c(C)c(CN4CCOCC4C)sc32)cc1 (stereo not drawn) [Example 71] | >7
COc1ccc(Cn2c(=O)n3ncnc3c3c(C)c(CN(C)C4CC4)sc32)cc1 [Example 46] | >7
COc1ccc(Cn2c(=O)n3ncnc3c3c(C)c(CNCC4(C)COC4)sc32)cc1 [Example 50] | >7
COc1ccc(Cn2c(=O)n3ncnc3c3c4c(sc32)CN(Cc2ccncc2)CC4)cc1 [Example 121] | >7

Structure (SMILES) | PDE1B pIC50
CCC1CN(Cc2sc3c(c2C)c2ncnn2c(=O)n3Cc2ccc(OC)cc2)CCO1 (stereo not drawn) [Example 68] | >7
COc1ccc(Cn2c(=O)n3ncnc3c3c4c(sc32)CN(CC2CCCOC2)CC4)cc1 (stereo not drawn) [Example 134] | >7
COc1ccc(Cn2c(=O)n3ncnc3c3cc(CN4CCOC(C)(C)C4)sc32)cc1 [Example 36] | >7
COc1ccc(Cn2c(=O)n3ncnc3c3c4c(sc32)CN(CCCSC)CC4)cc1 [Example 112] | >7
COc1ccc(Cn2c(=O)n3ncnc3c3c4c(sc32)CN(C(=O)C2CCOC2)CC4(F)F)cc1 (stereo not drawn) [Example 166] | >7
COC[C@@H]1CCCN1Cc1sc2c(c1C)c1ncnn1c(=O)n2Cc1ccc(OC)cc1 [Example 58] | >7
COc1ccc(Cn2c(=O)n3ncnc3c3cc(C(O)CN4C[C@@H](C)O[C@@H](C)C4)cnc32)cc1 (stereo partly drawn) [Example 268] | >7
COc1ccc(Cn2c(=O)n3ncnc3c3c4c(sc32)CN(CCCS(C)(=O)=O)CC4)cc1 [Example 118] | >7
COc1ccc(Cn2c(=O)n3ncnc3c3c(C)c(CN4CCNC(=O)C4)sc32)cc1 [Example 53] | >7
COc1ccc(Cn2c(=O)n3ncnc3c3c4c(sc32)CN(Cc2ccccn2)CC4)c(F)c1 [Example 139] | >7
COc1ccc(Cn2c(=O)n3ncnc3c3c(C)c(CN4CCOC(C)C4)sc32)cc1 (stereo not drawn) [Example 70] | >7
COc1ccc(Cn2c(=O)n3ncnc3c3c(C)c(CN4C[C@@H](C)O[C@@H](C)C4)sc32)cc1 [Example 55] | >7
COc1c(F)cc(Cn2c(=O)n3ncnc3c3c4c(sc32)COCC4)cc1F [Example 98] | <5
COc1ccc(Cn2c(=O)n3ncnc3c3c4c(sc32)CN(C(=O)C2CC2)CC4)cc1 [Example 159] | >7
COc1ccc(Cn2c(=O)n3ncnc3c3c4c(sc32)CN(Cc2ccncn2)CC4)cc1 [Example 119] | >7
COc1ccc(Cn2c(=O)n3ncnc3c3cc(C(F)CN4C[C@@H](C)O[C@@H](C)C4)cnc32)cc1 (stereo partly drawn) [Example 270] | >7
C[C@@H]1CN(Cc2cnc3c(c2)c2ncnn2c(=O)n3Cc2ccc(-n3cccn3)cc2)C[C@H](C)O1 [Example 289] | <5
COc1ccc(Cn2c(=O)n3ncnc3c3c4c(sc32)CN(CC2CCCOC2)CC4(F)F)cc1 (stereo not drawn) [Example 136] | >7

From patent publication US10105367B2, “Therapeutic thiophene-, furan-, and pyridine-fused azolopyrimidin-5-(6h)-ones” (Dart Neuroscience (Cayman) Ltd., priority 2012, dated 2018)
